# Test results taken from ChEMBL document CHEMBL4602671, “Modified Eremophilanes from Parasenecio hastatus and Their Neuroprotective Activities” (J Nat Prod, 2020).
# Activity calls are given as the source filed them. No cut-off for these calls is given here.
# Experiments:
# [1] = tested on: SH-SY5Y; assay: Neuroprotective activity in human SH-SY5Y cells assessed as reduction in H2O2-induced cell death at 1 uM preincubated for 1 hr followed by H2O2 addition and measured after 4 hrs by MTT assay relative to control; assay type: functional
# [2] = tested on: SH-SY5Y; assay: Neuroprotective activity in human SH-SY5Y cells assessed as reduction in H2O2-induced cell death at 10 uM preincubated for 1 hr followed by H2O2 addition and measured after 4 hrs by MTT assay; assay type: functional, cell-based
# [3] = tested on: SH-SY5Y; assay: Cytotoxicity against human SH-SY5Y cells at 100 uM; assay type: cell-based
# [4] = tested on: SH-SY5Y; assay: Neuroprotective activity in human SH-SY5Y cells assessed as reduction in H2O2-induced cell death at 100 uM preincubated for 1 hr followed by H2O2 addition and measured after 4 hrs by MTT assay; assay type: functional, cell-based
Compound,Activity [1],Activity [2],Activity [3],Activity [4]
Cc1cccc2c1[C@@](C)(O)c1c(C)coc1C2=O,Active,Active,Toxic,–
COc1c(O)c(C(C)=O)c(C)c2c1C=C[C@H](O)[C@@H]2C,inactive,Active,–,Active
C/C=C(/C)C(=O)OC[C@H]1c2c(c(OC)c3occ(C)c3c2C)C=C[C@H]1OC,>10%,Active,–,Active
COc1c(O)c(C(C)=O)c(C)c2c(C)cccc12,inactive,Active,–,Active
CCOCc1c2c(C)cccc2c(OC)c2occ(C)c12,inactive,Active,–,Active
COC[C@@]1(O)c2c(C)cccc2C(=O)c2occ(C)c21,Active,–,Toxic,–
Cc1coc2c1[C@](C)(O)c1c(ccc(O)c1C)C2=O,Active,Active,Toxic,–
COc1c2cccc(C)c2c(CO)c2c(C)coc12,inactive,Active,–,Active
COCc1c2c(C)cccc2c(OC)c2occ(C)c12,>10%,Active,–,Active
C/C=C(/C)C(=O)OC[C@@H]1c2c(c(OC)c3occ(C)c3c2C)C=C[C@@H]1O,>10%,Active,–,Active
Cc1c(C)c2c(c(C)c1O)CCC(C)(C(=O)O)O2 (stereo not given),inactive,–,–,–
COc1c2c(c(C)c3c(C)coc13)[C@@H](C)[C@@H](O)C=C2,>10%,Active,–,Active
COc1c2c(c(C)c3c(C)coc13)[C@H](CO)[C@H](O)C=C2,>10%,Active,–,Active
C/C=C(/C)C(=O)OCc1c(C(C)=O)c(O)c(OC)c2c1[C@@H](C)[C@@H](O)C=C2,inactive,Active,–,Active
COc1c2cccc(C)c2cc2c(C)coc12,inactive,Active,–,Active
COC[C@H]1c2c(c(OC)c3occ(C)c3c2C)C=C[C@H]1O,>10%,Active,–,Active
COc1c2cccc(C)c2c(C)c2c(C)coc12,>10%,Active,–,Active
COc1c2c(c(C)c3c(C)coc13)[C@@H](C)[C@@H]1O[C@@H]1[C@H]2O,inactive,Active,–,Active
COc1c(O)c(C(C)=O)c(C)c2c1C=CC[C@@H]2C,inactive,Active,–,Active
Cc1cccc2c1C(=O)c1c(C)coc1C2=O,inactive,Active,–,Active
COc1c2c(c(C)c3c(C)coc13)[C@@H](C)[C@@H](O)CC2,inactive,Active,–,Active
